Source: ChEMBL document CHEMBL1201862, “PubChem BioAssay data set” (2004)
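Exposure lasted 48 hours, with cells grown in 96-well plates and compounds tested at five concentrations. At the GI50, growth is halved.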 The source made the active and inactive calls. No stated cut-off is given here; in the data, active = GI50 up to about 1.1 µM and inactive = higher.

Legend:
Assay in all cases: growth of human tumour cells (NCI), 48 h
[1] = tested on: CAKI-1
[2] = tested on: HCC 2998
[3] = tested on: Hs-578T
[4] = tested on: MDA-MB-435
[5] = tested on: NCI-H226
[6] = tested on: OVCAR-5
[7] = tested on: RXF 393
[8] = tested on: SF-268
[9] = tested on: SK-MEL-5
[10] = tested on: SNB-19
[11] = tested on: SNB-75
[12] = tested on: T47D
[13] = tested on: TK-10
[14] = tested on: UACC-257
[15] = tested on: MCF7
[16] = tested on: OVCAR-8
[17] = tested on: SF-539
[18] = tested on: SK-OV-3
[19] = tested on: HL-60

Measured: GI50

C[N+](C)([O-])Cc1cc(-c2ccccc2)ccc1O
inactive: [1] > 100 µM | [2] > 100 µM | [3] 79.3 µM | [4] > 100 µM | [5] > 100 µM | [6] > 100 µM | [7] > 100 µM | [8] > 100 µM | [9] > 100 µM | [10] > 100 µM | [11] > 100 µM | [12] > 100 µM | [13] > 100 µM | [14] > 100 µM

O=c1[nH]nc(Cn2c3ccc(Br)cc3c3nc4ccccc4nc32)n1C1CCCCC1
inactive: [1] > 100 µM | [2] 54.6 µM | [15] 43.7 µM | [4] 28.1 µM | [5] 59.4 µM | [6] 34.2 µM | [16] 12.8 µM | [7] 23.8 µM | [8] 40 µM | [17] 13.3 µM | [9] 36.9 µM | [18] 87.1 µM | [10] > 100 µM | [11] > 100 µM | [12] 57.9 µM | [13] 29.8 µM | [14] 26.2 µM

NC(Cc1ccccc1)c1nccs1 (stereo not given)
inactive: [1] > 100 µM | [2] > 100 µM | [3] > 100 µM | [15] > 100 µM | [4] > 100 µM | [5] > 100 µM | [6] > 100 µM | [16] > 100 µM | [8] > 100 µM | [17] > 100 µM | [9] > 100 µM | [18] > 100 µM | [10] > 100 µM | [11] > 100 µM | [13] > 100 µM | [14] > 100 µM

CCOC(=O)NN(C(=O)OCC)C(=C(C1=CCCCC1)N1CCOCC1)N(NC(=O)OCC)C(=O)OCC
inactive: [1] > 100 µM | [2] > 100 µM | [19] > 100 µM | [15] > 100 µM | [4] > 100 µM | [5] > 100 µM | [6] > 100 µM | [16] > 100 µM | [7] > 100 µM | [8] > 100 µM | [18] > 100 µM | [10] > 100 µM | [11] > 100 µM | [12] > 100 µM | [13] > 100 µM

S=C(Nc1ccc(Br)cn1)NC12CC3CC(CC(C3)C1)C2
inactive: [1] 35.9 µM | [2] 19.4 µM | [15] 26.3 µM | [4] 92.9 µM | [5] 20.5 µM | [6] 17.5 µM | [16] 7.57 µM | [7] 15.2 µM | [8] 11.4 µM | [17] 10.1 µM | [18] 23.1 µM | [10] 11 µM | [11] 13.9 µM | [12] 49.1 µM | [14] 25.1 µM

Brc1ccc2c(c1)-c1nc3nc4c(cc3cc1CC2)CCc1ccc(Br)cc1-4
inactive: [1] > 100 µM | [2] > 100 µM | [15] > 100 µM | [4] 5.65 µM | [5] > 100 µM | [6] > 100 µM | [16] > 100 µM | [7] > 100 µM | [8] > 100 µM | [17] > 100 µM | [9] > 100 µM | [18] > 100 µM | [10] > 100 µM | [11] > 100 µM | [12] > 100 µM | [13] > 100 µM | [14] > 100 µM

CCCCCCCCCCCCCCCCCCNc1ccn(C2OC(COP(=O)(O)OCC3OC(n4cc(C)c(=O)[nH]c4=O)CC3N=[N+]=[N-])C(O)C2O)c(=O)n1 (stereo not given)
inactive: [1] 22.4 µM | [2] 15.1 µM | [3] 23 µM | [15] 37 µM | [4] 23.8 µM | [5] 22.8 µM | [6] 16.7 µM | [16] 21.8 µM | [8] 19.2 µM | [17] 17.8 µM | [9] 22.8 µM | [18] 18.9 µM | [10] 19.2 µM | [11] 25.8 µM | [12] 34.8 µM | [13] 16.8 µM | [14] 25.4 µM

O=[N+]([O-])/C(C(Cl)=C(Cl)Cl)=C(/Nc1cccc2cccnc12)n1nnc2ccccc21
inactive: [1] 13.5 µM | [2] 44.1 µM | [3] 11.9 µM | [15] 19.6 µM | [4] 15.9 µM | [5] 23.2 µM | [6] 21.6 µM | [16] 13.8 µM | [8] 16.5 µM | [17] 13.4 µM | [18] 15.9 µM | [10] 16.9 µM | [11] 19.4 µM | [12] 19 µM | [14] 30.3 µM

COc1ccc2oc(=O)c(-c3nc4ccccc4s3)cc2c1
inactive: [1] 18.5 µM | [2] > 100 µM | [19] > 100 µM | [3] 23.2 µM | [4] 12 µM | [5] 19.2 µM | [6] 23 µM | [16] 14.9 µM | [7] 12.2 µM | [8] 34 µM | [17] 3.92 µM | [9] 33.5 µM | [18] 13.6 µM | [10] 46.7 µM | [11] 8.65 µM | [12] 20.6 µM | [13] 32.2 µM | [14] > 85.1 µM

COC(=O)Cc1c([C@@H]2Nc3ccccc3[C@H]2CC(=O)OC)[nH]c2ccccc12
inactive: [1] 47.2 µM | [2] 45.1 µM | [3] 41.3 µM | [15] 25.4 µM | [4] 26.1 µM | [5] 71.8 µM | [6] 27.8 µM | [16] 33.7 µM | [7] 25.7 µM | [8] 31.1 µM | [17] 20.5 µM | [9] 7.98 µM | [18] 52.4 µM | [10] 55.6 µM | [11] 36.9 µM | [13] 44.2 µM | [14] 24.9 µM

Cc1ccc2nc(NC(=O)/C(=N\NC(=S)NN)C3C(=O)NC(=S)NC3=O)sc2c1
inactive: [1] > 100 µM | [2] > 100 µM | [19] > 100 µM | [5] > 100 µM | [6] > 100 µM | [16] > 100 µM | [7] > 100 µM | [8] > 100 µM | [17] > 100 µM | [9] > 100 µM | [18] > 100 µM | [10] > 100 µM | [11] > 100 µM | [13] > 100 µM | [14] > 100 µM

Oc1ccc(Cl)cc1C1=NC(NCNC2=NC(c3ccccc3)CC(c3cc(Cl)ccc3O)=N2)=NC(c2ccccc2)C1 (stereo not given)
inactive: [1] 94.2 µM | [2] > 100 µM | [19] > 100 µM | [15] 20.9 µM | [4] 47.9 µM | [5] > 100 µM | [6] 44.1 µM | [16] > 100 µM | [7] 37.7 µM | [8] 97.9 µM | [17] > 100 µM | [9] > 100 µM | [18] > 100 µM | [10] > 100 µM | [11] > 100 µM | [13] > 100 µM | [14] > 100 µM

COc1cc(O)c2c(=O)cc(C3(OC(C)=O)C=CC(OC4OC(CO)C(O)C(O)C4O)C=C3)oc2c1 (stereo not given)
inactive: [1] > 100 µM | [2] > 100 µM | [19] > 100 µM | [15] > 100 µM | [4] > 100 µM | [5] > 100 µM | [6] > 100 µM | [16] > 100 µM | [7] > 100 µM | [17] > 100 µM | [9] > 100 µM | [18] > 100 µM | [10] > 100 µM | [11] > 100 µM | [12] > 100 µM | [13] > 100 µM | [14] > 100 µM

COc1cc(CCC(=O)O)c2cc3ccccc3cc2c1O
inactive: [1] 19.6 µM | [2] 29 µM | [19] 16.5 µM | [3] 39.6 µM | [15] 16.4 µM | [4] 15.3 µM | [5] 32.6 µM | [6] 20.4 µM | [16] 16.3 µM | [8] 19.6 µM | [9] 15.1 µM | [18] 67.1 µM | [10] 23.5 µM | [12] 14.6 µM | [13] 33.3 µM | [14] 16.1 µM

CCCCC(C(=O)NCCNC(=O)CCC(=O)N(C)O)C(=O)NCCNC(=O)CCC(=O)N(C)O
inactive: [1] > 100 µM | [2] > 100 µM | [19] > 100 µM | [15] > 100 µM | [4] > 100 µM | [5] > 100 µM | [6] > 100 µM | [16] > 100 µM | [7] > 100 µM | [17] > 100 µM | [9] > 100 µM | [18] > 100 µM | [10] > 100 µM | [11] > 100 µM | [12] > 100 µM | [13] > 100 µM | [14] > 100 µM

C=C(C)CC1(O)C(=O)C(OCC)=C1OCC (stereo not given)
inactive: [1] > 100 µM | [19] > 100 µM | [3] > 100 µM | [15] > 100 µM | [4] > 100 µM | [5] > 100 µM | [6] > 100 µM | [16] > 100 µM | [8] > 100 µM | [17] > 100 µM | [9] > 100 µM | [18] > 100 µM | [10] > 100 µM | [11] 79.6 µM | [12] > 100 µM | [13] > 100 µM | [14] > 100 µM
